Source: article PMC7920489 (Pharmaceuticals, 2021)
Where two headings read alike, the source gives them in different places.

Tests used:
[1] = nude, mouse, in vivo, ip, 50 mg/kg
in vivo = settings: nude, mouse, ip, 50 mg/kg

COc1cccc(-c2cc(=O)c3ccccc3o2)c1NC(=O)C(C)(C)c1cc(C(=O)Nc2ccc(N(CCCl)CCCl)cc2)ccc1N [AL530]
tmax [1]: 2.5 h
tmax (in vivo): 2 h
